Measured values from ChEMBL document CHEMBL1201862, “PubChem BioAssay data set” (2004).
Activity calls are given as the source filed them.

Tests used:
[1] = viability of uninfected HEp-2 cells – cell-based, HTS, cytotoxicity control for RSV inhibitor project, dose response (AID 2410); format: functional; conditions: human respiratory syncytial virus
[2] = biological target: Paired box protein Pax-8 (Homo sapiens, UniProt Q06710); test: PAX8 transcriptional activity inhibition in RMG-I – RMG-I cells, luciferase, cherry-pick, dose response (AID 687027); format: functional, cell-based;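 also: luciferase reporter driven by Pax8 target thyroperoxidase promoter measured by SteadyGlo luminescence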
[3] = tested on: H9c2; test: cells; format: functional, cell-based; conditions: Rattus norvegicus, H9c2, Myocardium;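 also: confirmatory concentration-response retest of ultra-high-throughput screening hits for modulation of myocardial damage; cell death induced by hydrogen peroxide oxidative stress; compound pretreatment for 60 min then peroxide exposure for 2 h; potency is for protecting the cells against peroxide damage rather than for killing them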
[4] = biological target: T1, Replicative DNA helicase DnaB (Mycobacterium tuberculosis, UniProt P9WMR3); test: DnaB intein splicing inhibitors, dose response, biochemical, cell-free fluorescence (AID 449749); format: functional
T1 sequence (P9WMR3 whole entry): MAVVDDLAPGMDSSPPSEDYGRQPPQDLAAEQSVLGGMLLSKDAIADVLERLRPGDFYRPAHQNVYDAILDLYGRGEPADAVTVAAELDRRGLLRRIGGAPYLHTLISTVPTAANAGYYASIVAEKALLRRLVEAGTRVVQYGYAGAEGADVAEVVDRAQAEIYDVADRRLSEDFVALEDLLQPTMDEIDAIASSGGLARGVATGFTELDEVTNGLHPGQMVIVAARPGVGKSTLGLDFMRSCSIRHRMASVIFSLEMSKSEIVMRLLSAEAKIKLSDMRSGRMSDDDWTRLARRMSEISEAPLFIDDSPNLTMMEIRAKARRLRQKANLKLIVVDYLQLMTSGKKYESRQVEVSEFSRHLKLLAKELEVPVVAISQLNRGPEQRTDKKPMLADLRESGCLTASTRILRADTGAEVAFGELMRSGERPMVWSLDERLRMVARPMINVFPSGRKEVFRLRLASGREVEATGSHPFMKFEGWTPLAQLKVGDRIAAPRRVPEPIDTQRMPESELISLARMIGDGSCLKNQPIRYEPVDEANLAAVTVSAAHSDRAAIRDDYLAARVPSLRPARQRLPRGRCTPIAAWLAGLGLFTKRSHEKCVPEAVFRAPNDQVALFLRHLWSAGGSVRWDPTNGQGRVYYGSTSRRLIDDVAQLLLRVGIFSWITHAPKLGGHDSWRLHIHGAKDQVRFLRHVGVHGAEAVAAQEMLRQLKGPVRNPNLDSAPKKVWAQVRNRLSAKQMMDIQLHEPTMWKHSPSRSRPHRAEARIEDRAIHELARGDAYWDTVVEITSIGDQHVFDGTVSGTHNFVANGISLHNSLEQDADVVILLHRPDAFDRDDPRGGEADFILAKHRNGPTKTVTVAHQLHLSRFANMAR

[5] = biological target: T2, Protein RecA (Mycobacterium tuberculosis, UniProt P9WHJ3); test: Fluorescence Cell-Free Homogeneous Dose Retest to Identify Inhibitors of RecA-Intein Splicing Activity. [Related pubchem assays (depositor defined):AID2097, AID2223, AID489010, AID492950]; format: functional
T2 sequence (P9WHJ3 whole entry): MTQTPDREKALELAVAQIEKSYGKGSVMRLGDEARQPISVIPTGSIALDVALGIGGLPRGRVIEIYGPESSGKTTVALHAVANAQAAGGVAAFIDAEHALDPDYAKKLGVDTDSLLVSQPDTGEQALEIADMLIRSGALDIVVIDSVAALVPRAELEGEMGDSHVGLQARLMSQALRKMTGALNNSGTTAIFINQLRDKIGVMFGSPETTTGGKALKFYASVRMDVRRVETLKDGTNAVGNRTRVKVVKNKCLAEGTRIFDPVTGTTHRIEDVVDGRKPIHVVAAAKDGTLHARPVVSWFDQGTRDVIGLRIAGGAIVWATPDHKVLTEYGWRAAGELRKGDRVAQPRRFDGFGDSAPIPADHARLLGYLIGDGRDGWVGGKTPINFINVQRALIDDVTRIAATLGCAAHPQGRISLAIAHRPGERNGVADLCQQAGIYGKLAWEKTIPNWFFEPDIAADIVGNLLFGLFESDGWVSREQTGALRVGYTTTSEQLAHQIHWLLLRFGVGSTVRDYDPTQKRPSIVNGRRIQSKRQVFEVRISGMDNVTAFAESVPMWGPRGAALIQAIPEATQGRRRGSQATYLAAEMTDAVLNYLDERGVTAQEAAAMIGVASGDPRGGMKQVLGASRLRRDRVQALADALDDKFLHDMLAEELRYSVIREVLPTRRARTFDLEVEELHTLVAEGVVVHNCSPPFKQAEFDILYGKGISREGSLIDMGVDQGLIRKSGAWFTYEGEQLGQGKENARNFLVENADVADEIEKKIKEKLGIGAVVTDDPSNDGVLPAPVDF

[6] = biological target: T3, Heat shock factor protein 1 (Mus musculus, UniProt P38532); test: decrease of HSF1-responsive luciferase luminescence – cell-based, NIH3T3, dose retest, confirmation (AID 2382); format: functional;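 also: NIH3T3 fibroblasts with HSF1-driven luciferase reporter stressed by proteasome inhibitor MG132; luminescence from HSF1-driven luciferase expression after 8 hours of MG132 stress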
T3 sequence (P38532 whole entry): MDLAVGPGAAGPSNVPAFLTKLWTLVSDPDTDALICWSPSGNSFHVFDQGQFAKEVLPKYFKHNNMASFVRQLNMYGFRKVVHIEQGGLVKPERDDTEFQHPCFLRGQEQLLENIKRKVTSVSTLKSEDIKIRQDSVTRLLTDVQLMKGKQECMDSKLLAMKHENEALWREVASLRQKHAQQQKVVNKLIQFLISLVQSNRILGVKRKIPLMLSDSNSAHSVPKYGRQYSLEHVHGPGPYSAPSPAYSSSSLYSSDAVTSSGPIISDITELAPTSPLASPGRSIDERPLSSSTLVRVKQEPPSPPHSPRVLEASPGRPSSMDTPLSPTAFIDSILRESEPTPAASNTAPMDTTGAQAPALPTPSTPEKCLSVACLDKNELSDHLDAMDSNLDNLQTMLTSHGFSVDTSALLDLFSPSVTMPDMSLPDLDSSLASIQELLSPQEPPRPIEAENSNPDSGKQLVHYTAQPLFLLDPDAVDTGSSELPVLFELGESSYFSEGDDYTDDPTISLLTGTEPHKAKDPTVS

[7] = microbe, parasite or virus in culture; format: functional; conditions: Mycobacterium tuberculosis

Paired box protein Pax-8, sequence (Q06710 whole entry): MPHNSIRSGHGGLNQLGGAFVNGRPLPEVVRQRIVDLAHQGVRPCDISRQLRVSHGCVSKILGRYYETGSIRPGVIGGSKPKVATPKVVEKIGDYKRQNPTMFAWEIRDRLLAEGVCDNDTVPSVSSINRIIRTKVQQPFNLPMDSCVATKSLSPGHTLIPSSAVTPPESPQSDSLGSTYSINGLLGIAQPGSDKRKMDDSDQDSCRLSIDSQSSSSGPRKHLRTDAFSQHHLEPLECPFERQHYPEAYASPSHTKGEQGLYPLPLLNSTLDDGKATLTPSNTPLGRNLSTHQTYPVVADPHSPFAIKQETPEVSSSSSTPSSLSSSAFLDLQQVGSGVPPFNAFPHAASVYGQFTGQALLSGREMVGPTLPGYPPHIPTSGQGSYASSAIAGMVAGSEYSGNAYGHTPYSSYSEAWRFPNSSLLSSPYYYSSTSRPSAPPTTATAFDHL

## CCOC1OC(O)=C(Cl)/C1=N\c1cc(C)ccc1C (stereo unspecified)
[1]
  CC50: 29.2 µM (active)

## COc1cc2c(c(OC)c1OC)-c1ccc(SC)c(=O)cc1C(NC(=O)C(F)(F)F)CC2 (stereo unspecified)
[2]
  AC50: < 0.26 µM (active)

## Cc1ccc(Nc2nc(N)nc(O)c2N=O)cc1
[3]
  IC50: 12.1 µM (active)

## COc1ccc(OCc2cc(C(=O)NC3CCOC(C)(C)C3)no2)c2ccccc12 (stereo unspecified)
[4]
  AC50: 4.88 µM (active)
[5]
  EC50: 4.57 µM (active)

## COC(=O)c1c(NC(=O)/C=C/C(=O)O)sc(C)c1-c1ccc(C)cc1
[4]
  AC50: 33.7 µM (active)
[5]
  EC50: 11.1 µM (active)

## CCOC(=O)c1ccc(NC(=S)Nc2ccccc2N)cc1
[6]
  EC50: > 195 µM (not active)

## CCCc1nc(NCCO)c(C#N)c2c1CCCC2
[1]
  CC50: 15.7 µM (active)

## Cc1nn2c(-c3cccnc3)ccnc2c1-c1ccccc1
[1]
  CC50: 41.2 µM (active)

## Cc1noc(C)c1COC(=O)COc1ccc2c(C)cc(=O)oc2c1
[3]
  IC50: 13.5 µM (active)

## CC1=NN(C(N)=S)C(=O)C1N=Nc1ccc(C)c(Br)c1 (stereo unspecified)
[7]
  CC50: > 40 µM (active)

## COc1cc2c(cc1OC)C(C(=O)NC1CC1)C1c3ccccc3CCN1C2=O (stereo unspecified)
[6]
  EC50: > 195 µM (not active)

## CCOC(=O)C1=C(COC(=O)/C=C/c2ccc(F)cc2)NC(=O)NC1C (stereo unspecified)
[3]
  IC50: > 79 µM (inactive)

## CCN(CC)C(=O)[C@H]1CC(CC(=O)NCC23C[C@H]4C[C@@H](C2)C[C@@H](C3)C4)C(=O)N2CCc3c([nH]c4ccccc34)[C@]12C (stereo partly specified)
[7]
  CC50: 30.8 µM (active)

## CCOC(=O)c1c(NC(=O)CCl)sc(C(=O)N(CC)CC)c1C
[4]
  AC50: 2.19 µM (active)
[5]
  EC50: 43.6 µM (active)

## CCCOc1cccc(-c2nn(-c3ccccc3)cc2/C=C(\C#N)C(=O)NCCCn2ccnc2)c1
[7]
  CC50: > 40 µM (active)

## C=CCNC(=O)c1onc(CCl)c1C(=O)OC
[7]
  CC50: > 40 µM (active)

## COc1cccc(C(c2nnnn2Cc2ccccc2)N2CCC(n3c(O)nc4ccccc43)CC2)c1OC (stereo unspecified)
[2]
  AC50: 5.5 µM (active)

## CCc1ccccc1-n1c(SCC(=O)Nc2ccc3c(c2)OCCO3)nc2nncc-2c1O
[6]
  EC50: 3.04 µM (active)

## CC(OC(=O)Cn1[nH]c(=O)c2ccccc2c1=O)C(=O)Nc1ccccc1[N+](=O)[O-] (stereo unspecified)
[3]
  IC50: > 79 µM (inactive)

## CN(C)C(=O)/C=C\c1cn(-c2ccccc2)nc1-c1ccc2c(c1)OCCO2
[3]
  IC50: > 79 µM (inactive)

## COc1cccc(/C=N/NC(=O)c2oc3nc(-c4ccccc4)cc(-c4ccco4)c3c2N)c1
[3]
  IC50: > 79 µM (inactive)

## FC(F)(F)c1ccc2c(c1)N(CCCN1CCN(CCCl)CC1)c1ccccc1S2
[4]
  AC50: 9.54 µM (active)
[5]
  EC50: 3.6 µM (active)
